According to patent US9211420B2, “Kit containing photosensitizing dyes” (Colgate-Palmolive Company, priority 2009, dated 2015):
Entries after “also recorded” stand apart in the source; their conditions may differ.

System: TNFα of HEPM cells stimulated by IL-1β
Assay: Cytokine concentration in IL-1β-stimulated cell culture after light plus photosensitizing dye
Format: cell-based, human
Details: Fast Green at 1000 ppm combined with light at 625 nm for 2 minutes (9 mW/cm^2, 1.1 J/cm^2)
Method: Cells used in this example include human embryonic palatal mesenchymal (HEFM) cells and oral keratinocytes OBA9 cells. The embodiments also can be used with other cells such as human gingival fibroblasts (HGF). Cells were seeded in 24-well plates and cultured until reaching a confluence above 80%. The confluent-stage cells were treated with stimulants such as IL-1β followed by light irradiation alone, or light irradiation combined with GRAS photosensitizing dye. The cells were either pre-incubated in photosensitizing dye before light exposure, or administered at the same time of light exposure. The cells were incubated in photosensitizing dyes for varied amounts of time, the concentration of photosensitizing dyes were varied, and the cell were irradiated with light for varied amounts of time per exposure, as well as irradiation either one time or multiple times, as described below. After irradiation, the cells were incubated at 37° C. The cell culture media was collected after a certain amount of time for cytokine analysis. The results tabulated below reveal that visible light (various wavelength, 380-700 nm) alone and photosensitizing dye irradiated with visible light (various wavelength, 380-700 nm) have anti-inflammation effect. […]

## CCN(Cc1cccc(S(=O)(=O)[O-])c1)c1ccc(C(=C2C=CC(=[N+](CC)Cc3cccc(S(=O)(=O)[O-])c3)C=C2)c2ccc(O)cc2S(=O)(=O)[O-])cc1.[Na+].[Na+] [Fast Green, Fast Green FCF (FD&C Green No. 3)]
  Effect on TNFα concentration in the in vitro cell culture: can decrease pro-inflammation cytokine TNFα concentration; also recorded: can reduce concentration of TNFα
